target: T1, Human TLR7 (Homo sapiens, UniProt Q9NYK1); assay: Human TLR7 reporter assay (NF-kB-SEAP) in HEK293 cells; type: cell-based; conditions: hTLR7/seap-293 HEK293 cells, 20 hours incubation, absorbance 405 nm, read-out: human TLR7 binding activity (EC50)
T1 construct: expressed in transfected cells; host or cells: HEK293 (hTLR7/seap-293), stably carrying the TLR7 plasmid and the NF-kB-SEAP reporter plasmid
T1 sequence (Q9NYK1 27-1049): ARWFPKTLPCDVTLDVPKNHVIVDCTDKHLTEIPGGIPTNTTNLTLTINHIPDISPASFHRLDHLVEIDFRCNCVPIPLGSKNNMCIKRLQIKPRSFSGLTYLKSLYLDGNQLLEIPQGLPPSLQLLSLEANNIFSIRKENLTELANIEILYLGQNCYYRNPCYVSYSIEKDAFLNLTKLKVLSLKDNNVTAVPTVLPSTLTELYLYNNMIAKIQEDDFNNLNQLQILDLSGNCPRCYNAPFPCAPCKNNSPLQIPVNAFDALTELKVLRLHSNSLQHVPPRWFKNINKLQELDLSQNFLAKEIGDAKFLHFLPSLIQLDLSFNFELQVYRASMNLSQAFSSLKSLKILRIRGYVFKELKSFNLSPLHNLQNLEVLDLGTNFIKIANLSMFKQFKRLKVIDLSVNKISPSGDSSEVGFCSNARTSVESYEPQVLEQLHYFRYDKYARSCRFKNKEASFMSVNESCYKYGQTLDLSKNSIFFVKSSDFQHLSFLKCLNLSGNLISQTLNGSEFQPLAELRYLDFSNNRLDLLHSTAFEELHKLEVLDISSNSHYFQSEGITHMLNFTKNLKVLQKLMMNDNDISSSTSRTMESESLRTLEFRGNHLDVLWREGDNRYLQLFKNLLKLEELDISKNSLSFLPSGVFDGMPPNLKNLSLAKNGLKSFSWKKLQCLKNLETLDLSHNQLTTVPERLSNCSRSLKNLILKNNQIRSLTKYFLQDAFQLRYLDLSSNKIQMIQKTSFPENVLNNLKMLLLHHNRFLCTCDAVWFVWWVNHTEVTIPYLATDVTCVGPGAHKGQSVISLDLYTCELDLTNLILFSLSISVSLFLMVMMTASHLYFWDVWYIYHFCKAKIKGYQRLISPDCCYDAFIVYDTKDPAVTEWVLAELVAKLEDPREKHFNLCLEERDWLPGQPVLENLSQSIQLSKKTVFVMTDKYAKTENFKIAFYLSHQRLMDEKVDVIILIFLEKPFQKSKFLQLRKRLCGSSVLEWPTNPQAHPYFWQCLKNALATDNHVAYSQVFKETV
Protocol: Human TLR7 Reporter Assay
Human TLR7 or rat TLR7 plasmid and reporter plasmid (NF-kB-SEAP) stably-induced HEK293 cells were suspended in DMEM media (10% FBS, 1% NEAA, 10 ug/mL blastocidin S HCl, 100 ug/mL Zeocin), and the suspension was seeded in 90 μl/well on 96 well plate (hTLR^7/seap-293: 20000 cells/well, rTLR7/seap-293: 25000 cells/well).
To the cells seeded on 96 well plate was added in 10 μl/well a test compound wherein DMSO stock solution (2 μl) was hundredfold diluted with medium (200 μl) (final concentration; 1 nM-10 μM, common ratio 3). The mixture was stirred tapping in the side of the plate, and then incubated for 20 hours in CO2 incubator. To the cells stimulated by a test compound was added a substrate for reporter assay (substrate for SEAP, pNPP) by 50 μl/well. 10 minutes after the addition of substrate, a quenching solution (4N NaOH) was added by 50 μl/well, and the enzymatic reaction was quenched. Top seal A was attached on the plate, and absorbance was measured by microplate reader (405 nm).

| Compound | EC50 [µM] |
| --- | --- |
| CCCCOc1nc(N)c2[nH]c(=O)n(CCNCC(=O)OC)c2n1 [Example 1, Methyl N-[2-(6-amino-2-butoxy-7,8-dihydro-8-oxo-9H-purin-9-yl)-ethyl]glycinate] | 0.29 |
| CCCCOc1nc(N)c2[nH]c(=O)n(CCN[C@@H](CC(=O)OC)C(=O)OC)c2n1 [Example 6, Dimethyl N-[2-(6-amino-2-butoxy-8-oxo-7,8-dihydro-9H-purin-9-yl)ethyl]-L-aspartate] | 0.881 |
| CCCCOc1nc(N)c2[nH]c(=O)n(CCN[C@@H](CCCCN)C(=O)OC)c2n1 [Example 7, Methyl N^2-[2-(6-amino-2-butoxy-8-oxo-7,8-dihydro-9H-purin-9-yl)ethyl]-L-lysinate] | 1.71 |

From US20090099216A1, “NOVEL ADENINE COMPOUND” (priority 2005, published 2009)
